Four molecules from patent US11472774B2, “Anti-cancer compounds” (The University of Sydney, priority 2018, dated 2022) can be followed below.

T1 sequence (P02550 whole entry): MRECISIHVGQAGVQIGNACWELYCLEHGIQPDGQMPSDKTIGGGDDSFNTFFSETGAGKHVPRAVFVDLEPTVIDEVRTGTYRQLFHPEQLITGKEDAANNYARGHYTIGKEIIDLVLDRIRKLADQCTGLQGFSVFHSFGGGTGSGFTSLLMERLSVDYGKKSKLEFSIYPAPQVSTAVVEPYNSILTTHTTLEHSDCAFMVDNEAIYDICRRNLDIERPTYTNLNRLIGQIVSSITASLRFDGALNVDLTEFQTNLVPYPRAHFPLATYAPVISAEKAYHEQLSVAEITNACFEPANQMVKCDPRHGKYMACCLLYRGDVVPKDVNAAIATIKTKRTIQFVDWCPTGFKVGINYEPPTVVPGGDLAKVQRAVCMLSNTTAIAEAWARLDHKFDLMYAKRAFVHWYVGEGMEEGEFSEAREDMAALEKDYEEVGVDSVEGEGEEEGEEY
T1 sequence (P02554 whole entry): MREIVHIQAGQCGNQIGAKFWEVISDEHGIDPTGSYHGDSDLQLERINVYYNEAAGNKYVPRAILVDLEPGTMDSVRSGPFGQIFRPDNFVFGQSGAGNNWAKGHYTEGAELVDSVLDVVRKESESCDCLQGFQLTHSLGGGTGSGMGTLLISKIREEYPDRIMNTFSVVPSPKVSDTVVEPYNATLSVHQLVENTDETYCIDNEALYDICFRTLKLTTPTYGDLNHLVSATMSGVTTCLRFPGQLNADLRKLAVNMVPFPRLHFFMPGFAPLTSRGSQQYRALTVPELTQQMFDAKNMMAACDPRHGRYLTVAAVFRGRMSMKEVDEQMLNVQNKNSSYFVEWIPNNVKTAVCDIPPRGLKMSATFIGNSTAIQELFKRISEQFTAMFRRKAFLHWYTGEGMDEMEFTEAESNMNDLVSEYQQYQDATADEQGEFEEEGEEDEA

This assay addresses T1, porcine brain tubulin (Sus scrofa, UniProt P02550+P02554).
T1 construct: purchased Cytoskeleton; host or cells: porcine brain tissue
Description: Fluorescence-based tubulin polymerization assay. In kind it is biochemical. The conditions noted are these: compared to control (DMSO); 37° C.; FIG. 1 and FIG. 2. As to the method: Fluorescence-based tubulin polymerization assay was conducted in a final volume of 55 μL using the Tubulin Polymerization Assay kit (Cytoskeleton, Colo., USA) as per manufacturer's instructions. Briefly, porcine brain tubulin was incubated with test compounds at 37° C. and fluorescence was measured using with Tecan M200 PRO+ microplate reader (Tecan, Switzerland) at 355 nm excitation and 460 nm emission.
With `CC(=O)O[C@H]1C(=O)[C@@]2(C)[C@H]([C@H](OC(=O)c3ccccc3)[C@]3(O)C[C@H](OC(=O)[C@H](O)[C@@H](NC(=O)c4ccccc4)c4ccccc4)C(C)=C1C3(C)C)[C@]1(OC(C)=O)CO[C@@H]1C[C@@H]2O` [paclitaxel], the “effect on tubulin polymerization” value is recorded as “enhanced tubulin polymerization”.
The same measure for `O=C(CCCc1ccc(-c2ccccc2F)cc1)Nc1cccnc1` [WJA69b, 4-(2′-fluoro-[1,1′-biphenyl]-4-yl)-N-(pyridin-3-yl)butanamide]: “inhibited tubulin polymerization”; for `O=C(NCCCc1ccc(-c2ccccc2F)cc1)c1cccnc1` [WJA88, N-(3-(2′-Fluoro-[1,1′-Biphenyl]-4-yl)Propyl)Nicotinamide]: “inhibited tubulin polymerization”; for `CC[C@]1(O)C[C@@H]2CN(CCc3c([nH]c4ccccc34)[C@@](C(=O)OC)(c3cc4c(cc3OC)N(C)[C@H]3[C@@](O)(C(=O)OC)[C@H](OC(C)=O)[C@]5(CC)C=CCN6CC[C@]43[C@@H]65)C2)C1` [vinblastine]: “inhibited tubulin polymerization”.
